Test results reported in patent US20230257715A1, “COMPOSITIONS AND METHODS FOR REGULATING ENTEROENDOCRINE CELL DIFFERENTIATION AND USES THEREOF” (The Children's Medical Center Corporation, priority 2020, published 2023).

Legend:
[1] = system: human duodenal enteroids; assay: Flow cytometry of CHGA+ cells from enteroids; type: cell-based
Method: Organoids were incubated in Cell Recovery solution for 40-60 minutes at 4° C. to remove the Matrigel® and then centrifuged at 500×g for 5 minutes at 4° C. To achieve single cell suspension, organoids were then incubated in 500 μL of TrypLE™ Express (Thermo Fisher Scientific) at 37° C. for 30 minutes and broken up by repeated pipetting using a bent P1000 pipette tip. Each sample was then diluted in 800 μL of 20% FBS in Advanced DMEM/F12 and then centrifuged at 800×g for 5 minutes at 4° C. To mark dead cells, each sample was then incubated in DAPI (1:1000) diluted in 2% FBS/2 mM EDTA/calcium-free DMEM for 20 minutes at room temperature, then centrifuged at 800×g for 5 minutes at 4° C. and washed in 2% FBS/2 mM EDTA/DMEM. Cells were then incubated in 1% PFA for 15 minutes at room temperature, washed with 2% FBS/PBS and then permeabilized in 0.2% Tween 20 in 2% FBS/PBS for 15 minutes at 37° C. Following centrifugation, cells were resuspended in 0.1% Tween 20/2% FBS/2 mM EDTA in PBS with PE/Alexa Fluor 647-conjugated CHGA (BD Biosciences, 564563, 1:100) or PE/Alexa Fluor 647-conjugated mouse IgG1, K isotype, (BD Biosciences, 554680, 1:200) or with no antibody (the latter two acting as controls) for 30 minutes on ice. Cells were then washed in 0.1% Tween 20/2% FBS/2 mM EDTA in PBS, filtered through a 37-micron mesh, and then analyzed on a BD FACSAria II SORP flow cytometer. […]

[2] = system: human duodenal enteroids; assay: Immunofluorescence staining of lineage markers CK20, MUC2, LYZ in enteroids; type: cell-based
Method: Immunofluorescence staining was performed as previously described with minor modifications (Dekkers J F, Alieva M, Wellens L M, et al. Nat Protoc 2019; 14:1l756-1771)^32. Organoids were grown in and isolated from Matrigel® as noted above. 1-3 wells from a 24-well plate were washed in 200 μL of 1× phosphate-buffered saline (PBS) and moved in suspension to a 1.5 mL microcentrifuge tube. Each tube was centrifuged at 800×g for 5 minutes at 4° C. to pellet organoids. PBS was aspirated, and organoids were fixed in 200 μL of 4% paraformaldehyde (PFA) for 20 minutes on ice, shaking. Each tube was centrifuged again as above, and PFA was aspirated. The organoids were then resuspended in 500 μL of 0.3% Triton-X in PBS and moved to a 48-well plate for the remaining steps. The organoids were permeabilized for 30 minutes at room temperature, shaking. Between each step, organoids were allowed to settle to the bottom of each well, the plate was angled, and the solution aspirated by careful pipetting. Organoids were then blocked with 5% bovine serum albumin in PBS for 1.5 hours at room temperature, shaking. This was followed by three five-minute washes in 500 μL of PBS at room temperature, shaking.
Each well was then incubated in 200 μL of primary antibodies diluted in 5% BSA/0.1% Trition-X in PBS at 4° C. overnight. This was followed by five washes in 500 μL of 0.1% Triton-X in PBS for 15 minutes each at room temperature, shaking. 200 μL of secondary antibodies, including Alexa Fluor 488- or 647-conjugated anti-mouse (Invitrogen, A-21202, or A-31571, 1:400), Alexa Fluor 488-conjugated anti-rat (Invitrogen, A-21208, 1:400), Alexa Fluor 488-conjugated anti-goat (Invitrogen, A-11055, 1:400) or Alexa Fluor 647-conjugated anti-rabbit (Invitrogen, A-31573, 1:400), diluted in 0.1% Triton-X in PBS, which were then added to each well and incubated for two hours at room temperature, shaking. Organoids were then washed as above, then moved to new 1.5 mL centrifuge tubes. […]

## CCn1cc(C(=O)O)c(=O)c2c(N)c(F)c(NC3CCCCC3)cc21 [AS, AS1842856]
[1]
  number of CHGA+ cells relative to the number seen with G2D12 alone: ~50 times
[2]
  lysozyme (LYZ) immunofluorescence staining: expressed
  mucin 2 (MUC2) immunofluorescence staining: lesser degree
[2]; enterocyte marker
  cytokeratin 20 (CK20) immunofluorescence staining: lesser degrees
